The record followed here is patent EP4644383A1 (Jiangsu Yahong Meditech Co., Ltd., priority 2022, dated 2024).

In assay [1] the target is T1, FGFR1 (Homo sapiens, UniProt P11362).
T1 construct: cytoplasmic domain [398-822 (terminal) amino acids]; purchased Carna 08-133
Nature of the assay: FGFR1 kinase activity inhibition assay (LanthaScreen TR-FRET). The class given is biochemical. The method, then:
(§1) PV3552) and 10 mM EDTA were added to quench the kinase reaction, and incubated at 22°C for 60 minutes. • ⑤ The reaction was measured using a PerkinElmer EnVision multimode plate reader through TR-FRET dual wavelength detection. • 1. The RFU values were copied from the Envision program. • 2. The ratio of RFU 520nm/RFU 495nm was calculated. • 3. The value of the ratio was converted to a percentage inhibition value. % Inhibition = (max-data)/(max-min) × 100 [formula] "Min" represents the ratio of the control without enzyme, "max" represents the ratio of the DMSO control, and "data" represents the ratio of the compounds in wells with different concentrations. […] "Top" refers to the maximum response, "Bottom" refers to the minimum response, and "HillSlope" refers to the slope of the curve.
Background: In TR-FRET formats the signal depends on donor and acceptor labels being close together.

In assay [2] the target is T2, FGFR3 (Homo sapiens, UniProt P22607).
T2 construct: FGFR3's cytoplasmic domain [436-806 (terminal) amino acids]; purchased Carna 08-135
T2 sequence (P22607 436-806): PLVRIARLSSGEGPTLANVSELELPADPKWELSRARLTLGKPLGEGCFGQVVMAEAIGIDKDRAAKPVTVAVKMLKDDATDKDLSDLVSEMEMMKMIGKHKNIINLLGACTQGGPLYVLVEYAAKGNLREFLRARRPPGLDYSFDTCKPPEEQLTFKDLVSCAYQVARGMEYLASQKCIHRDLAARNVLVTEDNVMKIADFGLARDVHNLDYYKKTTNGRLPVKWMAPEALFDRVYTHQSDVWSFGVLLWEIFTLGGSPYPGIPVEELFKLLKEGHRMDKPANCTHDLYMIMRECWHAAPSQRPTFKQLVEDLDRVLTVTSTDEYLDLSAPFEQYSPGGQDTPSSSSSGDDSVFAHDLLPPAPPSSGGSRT
Nature of the assay: FGFR3 kinase activity inhibition assay (LanthaScreen TR-FRET). It counts as biochemical. The settings on record: for Selectivity (X) FGFR1/FGFR3: ratio of IC50 FGFR1/FGFR3, selectivity towards FGFR3. On the procedure:
as §1, with “curve. According to the same method as that in the FGFR1 kinase activity inhibition assay, the inhibitory activities against FGFR2, FGFR3 and FGFR4 were tested using FGFR2's cytoplasmic domain [399-821 (terminal) amino acids] (Carna: 08-134), FGFR3's cytoplasmic domain [436-806 (terminal) amino acids] (Carna: 08-135) and FGFR4's cytoplasmic domain [460-802 (terminal) amino acids] (Carna: 08-136), respectively. […]” for “curve.”

[3] abbreviates: FGFR1 kinase, TR-FRET, read-out: IC50 (nM) FGFR1.
Where [4] appears, read: FGFR3 kinase, TR-FRET, read-out: IC50 (nM) FGFR3.

What is called IC50 is the point on the concentration scale where inhibition reaches its midpoint.

Like-named read-outs stand apart in the source and are kept apart here. Bounds are passed on as bounds.

T1 sequence (P11362 398-822): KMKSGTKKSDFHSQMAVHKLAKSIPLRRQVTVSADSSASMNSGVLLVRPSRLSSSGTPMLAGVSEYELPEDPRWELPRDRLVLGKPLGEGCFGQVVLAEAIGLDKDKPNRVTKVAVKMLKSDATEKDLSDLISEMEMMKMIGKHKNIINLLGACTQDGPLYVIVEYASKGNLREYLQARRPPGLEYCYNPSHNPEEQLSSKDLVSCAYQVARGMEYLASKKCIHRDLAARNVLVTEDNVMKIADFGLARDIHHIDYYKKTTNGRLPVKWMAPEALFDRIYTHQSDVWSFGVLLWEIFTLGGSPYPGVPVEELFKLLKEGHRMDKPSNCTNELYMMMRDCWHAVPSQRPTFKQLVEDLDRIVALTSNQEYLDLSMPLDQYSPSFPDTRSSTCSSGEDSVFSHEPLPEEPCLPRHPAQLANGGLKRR

With `COCCN(C)CCn1cc(-c2n[nH]c3c(F)cc(O[C@H](C)c4c(Cl)cncc4Cl)cc23)cn1` [Example 20, (R)-2-(4-(5-(1-(3,5-dichloropyridin-4-yl)ethoxy)-7-fluoro-1H-indazol-3-yl)-1H-pyrazol-1-yl)-N-(2-methoxyethyl)-N-methylethan-1-amine], the results for the IC50 in assay [1] (setting [3]) and in assay [2] (setting [4]) were 1 to 10 nM and less than 1 nM, respectively. In addition, the “Selectivity (X) FGFR1/FGFR3” value in assay [2] is recorded as “A (A represents 1 ≤ multiple X<20)”.

`COCCOCCn1cc(-c2n[nH]c3c(F)cc(O[C@H](C)c4c(Cl)cncc4Cl)cc23)cn1` [Example 21] yielded an IC50 in assay [1] of more than 100 nM. In assay [2], the concentration for half-maximal inhibition (IC50) was in the range of 10 to 100 nM and the “Selectivity (X) FGFR1/FGFR3” value is given as “A (A represents 1 ≤ multiple X<20)”.

With `C[C@@H](Oc1cc(F)c2[nH]nc(-c3cnn(CCN4CCN(C)CC4)c3)c2c1)c1c(Cl)cncc1Cl` [Example 22, (R)-5-(1-(3,5-dichloropyridin-4-yl)ethoxy)-7-fluoro-3-(1-(2-(4-methylpiperazin-1-yl)ethyl)-1H-pyrazol-4-yl)-1H-indazole], the half-inhibitory concentration (IC50) in assay [1] (setting [3]) lay within 10 to 100 nM; in assay [2] (setting [4]), 1 to 10 nM. Also, the “Selectivity (X) FGFR1/FGFR3” value in assay [2] is given as “A (A represents 1 ≤ multiple X<20)”.

In the case of `COc1cc(O[C@H](C)c2c(Cl)cncc2Cl)cc2c(-c3cnn(CCN4CCOCC4)c3)n[nH]c12` [Example 25, (R)-4-(2-(4-(5-(1-(3,5-dichloropyridin-4-yl)ethoxy)-7-methoxy-1H-indazol-3-yl)-1H-pyrazol-1-yl)ethyl)morpholine], in assay [1], the IC50 is more than 100 nM. Further, in assay [2], the concentration for half-maximal inhibition (IC50) was more than 100 nM and the “Selectivity (X) FGFR1/FGFR3” value was “B (B represents 20 ≤ multiple X<50)”.

For the compound `Cc1cc(O[C@H](C)c2c(Cl)cncc2Cl)cc2c(-c3cnn(CC4CC4)c3)n[nH]c12` [Example 26, (R)-3-(1-(cyclopropylmethyl)-1H-pyrazol-4-yl)-5-(1-(3,5-dichloropyridin-4-yl)ethoxy)-7-methyl-1H-indazole], the IC50 in assay [1] was more than 100 nM. Moreover, in assay [2], the half-inhibitory concentration (IC50) was in the range of 10 to 100 nM and the “Selectivity (X) FGFR1/FGFR3” value is “B (B represents 20 ≤ multiple X<50)”.

Take `Cc1c(-c2n[nH]c3ccc(O[C@H](C)c4c(Cl)cncc4Cl)nc23)cnn1C` [Example 30, (R)-5-(1-(3,5-dichloropyridin-4-yl)ethoxy)-3-(1,5-dimethyl-1H-pyrazol-4-yl)-1H-pyrazolo[4,3-b]pyridine]: in assay [1], the half-maximal inhibitory concentration (IC50) fell in the range of 10 to 100 nM. Also, in assay [2], the 50% inhibitory concentration (IC50) fell in the range of 10 to 100 nM and the “Selectivity (X) FGFR1/FGFR3” value is listed as “A (A represents 1 ≤ multiple X<20)”.

In the case of `C[C@@H](Oc1ccc2[nH]nc(-c3cnn(CCCN4CCOCC4)c3)c2n1)c1c(Cl)cncc1Cl` [Example 32, (R)-4-(3-(4-(5-(1-(3,5-dichloropyridin-4-yl)ethoxy)-1H-pyrazolo[4,3-b]pyridin-3-yl)-1H-pyrazol-1-yl)propyl)morpholine], the 50% inhibitory concentration (IC50) in assay [1] (setting [3]) was 1 to 10 nM; in assay [2] (setting [4]), less than 1 nM. Also, the “Selectivity (X) FGFR1/FGFR3” value in assay [2] is listed as “A (A represents 1 ≤ multiple X<20)”.

On to `C[C@@H](Oc1ccc2[nH]nc(-c3cnn(C4CCOCC4)c3)c2n1)c1c(Cl)cncc1Cl` [Example 34, (R)-5-(1-(3,5-dichloropyridin-4-yl)ethoxy)-3-(1-(tetrahydro-2H-pyran-4-yl)-1H-pyrazol-4-yl)1H-pyrazolo[4,3-b]pyridine], for which the half-inhibitory concentration (IC50) in assay [1] (setting [3]) and in assay [2] (setting [4]) was 1 to 10 nM each time. Further, the “Selectivity (X) FGFR1/FGFR3” value in assay [2] is listed as “A (A represents 1 ≤ multiple X<20)”.

In turn, `CC(=O)N1CCC(n2cc(-c3n[nH]c4ccc(O[C@H](C)c5c(Cl)cncc5Cl)nc34)cn2)CC1` [Example 35] displayed an IC50 in assay [1] of 1 to 10 nM. Besides, in assay [2], the 50% inhibitory concentration (IC50) is less than 1 nM and the “Selectivity (X) FGFR1/FGFR3” value was “A (A represents 1 ≤ multiple X<20)”.

With `COCCn1cc(-c2n[nH]c3ccc(O[C@H](C)c4c(Cl)cncc4Cl)nc23)cn1` [Example 40, (R)-5-(1-(3,5-dichloropyridin-4-yl)ethoxy)-3-(1-(2-methoxyethyl)-1H-pyrazol-4-yl)-1H-pyrazolo[4,3-b]pyridine], in assay [1], the concentration for half-maximal inhibition (IC50) lay within 10 to 100 nM. Further, in assay [2], the half-inhibitory concentration (IC50) is 1 to 10 nM and the “Selectivity (X) FGFR1/FGFR3” value is on record as “A (A represents 1 ≤ multiple X<20)”.

Consider `C[C@@H](Oc1ccc2[nH]nc(-c3cnn(CCS(C)(=O)=O)c3)c2n1)c1c(Cl)cncc1Cl` [Example 42, (R)-5-(1-(3,5-dichloropyridin-4-yl)ethoxy)-3-(1-(2-(methylsulfonyl)ethyl)-1H-pyrazol-4-yl)-1H-pyrazolo[4,3-b]pyridine], for which the half-inhibitory concentration (IC50) in assay [1] (setting [3]) was in the range of 10 to 100 nM; in assay [2] (setting [4]), 1 to 10 nM. For the same compound, the “Selectivity (X) FGFR1/FGFR3” value in assay [2] is “B (B represents 20 ≤ multiple X<50)”.

Consider `C[C@@H](Oc1ccc2[nH]nc(-c3cnn4c3CCC4)c2n1)c1c(Cl)cncc1Cl` [Example 45, (R)-5-(1-(3,5-dichloropyridin-4-yl)ethoxy)-3-(5,6-dihydro-4H-pyrrolo[1,2-b]pyrazol-3-yl)-1H-pyrazolo[4,3-b]pyridine], for which the IC50 in assay [1] (setting [3]) was more than 100 nM; in assay [2] (setting [4]), 10 to 100 nM. The “Selectivity (X) FGFR1/FGFR3” value in assay [2] is reported as “A (A represents 1 ≤ multiple X<20)”.

On to `CCCn1cc(-c2n[nH]c3ccc(O[C@H](C)c4c(Cl)cncc4Cl)nc23)cn1` [Example 46, (R)-5-(1-(3,5-dichloropyridin-4-yl)ethoxy)-3-(1-propyl-1H-pyrazol-4-yl)-1H-pyrazolo[4,3-b]pyridine], for which the half-maximal inhibitory concentration (IC50) in assay [1] (setting [3]) was 10 to 100 nM; in assay [2] (setting [4]), less than 1 nM. Also, in assay [2], the “Selectivity (X) FGFR1/FGFR3” value is on record as “B (B represents 20 ≤ multiple X<50)”.

As for `C[C@@H](Oc1ccc2[nH]nc(-c3cnn(CC4CC4)c3)c2n1)c1c(Cl)cncc1Cl` [Example 49, (R)-3-(1-(cyclopropylmethy 1)-1H-pyrazol-4-yl)-5-(1-(3,5-dichloropyridin-4-yl)ethoxy)-1H-pyrazolo[4,3-b]pyridine], the IC50 in assay [1] (setting [3]) is 10 to 100 nM; in assay [2] (setting [4]) it was 1 to 10 nM. For the same compound, in assay [2], the “Selectivity (X) FGFR1/FGFR3” value was “B (B represents 20 ≤ multiple X<50)”.

In the case of `C[C@@H](Oc1ccc2[nH]nc(-c3cnn(CCC#N)c3)c2n1)c1c(Cl)cncc1Cl` [Example 50, (R)-3-(4-(5-(1-(3,5-dichloropyridin-4-yl)ethoxy)-1H-pyrazolo[4,3-b]pyridin-3-yl)-1H-pyrazol-1-yl)propionitrile], the IC50 in assay [1] (setting [3]) was 10 to 100 nM; in assay [2] (setting [4]) it was less than 1 nM. Besides, the “Selectivity (X) FGFR1/FGFR3” value in assay [2] is given as “A (A represents 1 ≤ multiple X<20)”.

On to `Cc1ncc(-c2n[nH]c3ccc(O[C@H](C)c4c(Cl)cncc4Cl)nc23)cn1` [Example 52, (R)-5-(1-(3,5-dichloropyridin-4-yl)ethoxy)-3-(2-methylpyrimidin-5-yl)-1H-pyrazolo[4,3-b]pyridine], for which the values for the concentration for half-maximal inhibition (IC50) in assay [1] (setting [3]) and in assay [2] (setting [4]) were more than 100 nM and 10 to 100 nM, respectively. The “Selectivity (X) FGFR1/FGFR3” value in assay [2] is given as “A (A represents 1 ≤ multiple X<20)”.

Regarding `C[C@@H](Oc1ccc2[nH]nc(-c3cnn(CCN4CCN(C)CC4)c3)c2n1)c1c(Cl)cncc1Cl` [Example 53, (R)-5-(1-(3,5-dichloropyridin-4-yl)ethoxy)-3-(1-(2-(4-methylpiperazin-1-yl)ethyl)-1H-pyrazol-4-yl)-1H-pyrazolo[4,3-b]pyridine], the figures for the concentration for half-maximal inhibition (IC50) in assay [1] (setting [3]) and in assay [2] (setting [4]) were 1 to 10 nM and less than 1 nM, respectively. Also, in assay [2], the “Selectivity (X) FGFR1/FGFR3” value was “A (A represents 1 ≤ multiple X<20)”.

As to `C[C@@H](Oc1ccc2[nH]nc(-c3cnn(CCN4CCN(S(C)(=O)=O)CC4)c3)c2n1)c1c(Cl)cncc1Cl` [Example 56, (R)-5-(1-(3,5-dichloropyridin-4-yl)ethoxy)-3-(1-(2-(4-(methylsulfonyl)piperazin-1-yl)ethyl)-1H-pyrazol-4-yl)-1H-pyrazolo[4,3-b]pyridine], the 50% inhibitory concentration (IC50) was 1 to 10 nM in assay [1] (setting [3]) and less than 1 nM in assay [2] (setting [4]). In addition, in assay [2], the “Selectivity (X) FGFR1/FGFR3” value is on record as “A (A represents 1 ≤ multiple X<20)”.

`CC(=O)N1CCN(CCn2cc(-c3n[nH]c4ccc(O[C@H](C)c5c(Cl)cncc5Cl)nc34)cn2)CC1` [Example 57, (R)-1-(4-(2-(4-(5-(1-(3,5-dichloropyridin-4-yl)ethoxy)-1H-pyrazolo[4,3-b]pyridin-3-yl)-1H-pyrazol-1-yl)ethyl)piperazin-1-yl)ethan-1-one]: the values for the concentration for half-maximal inhibition (IC50) in assay [1] (setting [3]) and in assay [2] (setting [4]) were 1 to 10 nM and less than 1 nM, respectively. Further, the “Selectivity (X) FGFR1/FGFR3” value in assay [2] is on record as “A (A represents 1 ≤ multiple X<20)”.

Take `C[C@@H](Oc1ccc2[nH]nc(-c3cnn(CC(=O)N4CCOCC4)c3)c2n1)c1c(Cl)cncc1Cl` [Example 63, (R)-2-(4-(5-(1-(3,5-dichloropyridin-4-yl)ethoxy)-1H-pyrazolo[4,3-b]pyridin-3-yl)-1H-pyrazol-1-yl)-1-morpholinoethan-1-one]: the half-maximal inhibitory concentration (IC50) was 10 to 100 nM in assay [1] (setting [3]) and 1 to 10 nM in assay [2] (setting [4]). In assay [2], the “Selectivity (X) FGFR1/FGFR3” value is recorded as “A (A represents 1 ≤ multiple X<20)”.
